{
  "source": "patent US8673617B2",
  "about": "“Culture medium for Haemophilus influenzae type B” (Sanofi Pasteur SA, priority 2007, dated 2014)",
  "tested_on": "Haemophilus influenzae serotype b",
  "assay": "PRP production in liquid garden pea peptone-based culture medium as a function of heme source (sandwich ELISA on supernatant)",
  "type": "cell-based",
  "settings": "for Mean PRP / PRP in mg/l Assay 1 / PRP in mg/l Assay 2: garden pea medium, 16 h",
  "procedure": "The production of PRP obtained after 16 hours of bacterial culture in liquid plant peptones-based culture media in which the heme source was either hemin or protoporphyrin IX of animal origin (porcine protoporphyrin) in disodium salt form, or protoporphyrin IX of purely synthetic origin in disodium salt form was compared. […] An enzymatic hydrolysate of garden pea peptone provided by Kerry (Hy pea 7404) and a wheat peptone provided by Organotechnie (19559) were tested at a concentration in the culture medium equivalent to 0.87 g/l of protein nitrogen. By reference to the current methods for the production of PRP, PRP production was also measured in a medium that contains a peptone of animal origin, such as casein hydrolysate (HAC) provided by Solabia at a concentration in the medium equivalent to 0.87 g/l with increased concentrations of hemin (see table III).\n1.1) Preparation of the Media • 1.1.1. Stock solution of β-NAD (Fluka) at 1 g/l in water which was ultrafiltered and then sterilized by filtration through 0.22 μm. • 1.1.2. Stock solution of hemin (Sigma) at 0.25 g/l in water was ultrafiltered, comprising 5 ml of 25% aqueous ammonia (Cooper) to aid dissolution. The stock solution was sterilized by filtration through 0.22 μm. • 1.1.3. Stock solution of porcine protoporphyrin IX (Sigma) at 0.25 g/l in ultrafiltered water comprising 5 ml of 25% aqueous ammonia (Cooper) in order to facilitate the dissolution. The stock solution was sterilized by filtration through 0.22 μm. • 1.1.4. Stock solution of synthetic protoporphyrin IX at 0.25 g/l in ultrafiltered water comprising 5 ml of 25% aqueous ammonia (Cooper) in order to facilitate the dissolution. The stock solution was also heated to 80° C. in a water bath with stirring in order to complete the dissolution before being sterilized by filtration through 0.22 μm. The protoporphyrin IX, in disodium salt form, was synthesized according to the method described in the U.S. provisional patent application Ser. No. 12/057,574, filed Mar. 28, 2008 and application Ser. No. 60/943,735 and filed on Jun. 13, 2007 using the steps which are described in scheme 2. • The stock solutions of hemin and protoporphyrin IX were checked for their respective contents of active compounds after sterilizing filtration. The protoporphyrin IX and hemin contents were determined by Reversed Phase High Performance Liquid Chromatography (RP-HPLC). The chromatographic chain comprises a twin head pump module allowing the formation of a binary gradient, a programmable automatic injector, a diode array UV detector and a chromatographic column of the type Synergi 4 μm, Polar RP-80A (150×4.6) mm, ref 00F-4336-E0, Phenomenex. • The stock solution of hemin (Sigma) to be checked after filtration was diluted ⅓ in distilled water. The stock solutions of porcine protoporphyrin IX (Sigma) and of synthetic protoporphyrin IX to be checked after filtration were diluted ¼ in distilled water. In parallel, a calibration series was prepared in ammoniated water ranging from 0.025 g/l to 0.125 g/l of protoporphyrin IX from porcine protoporphyrin IX from Sigma (ref: 25838-5) and a calibration series ranging from 0.050 g/l to 0.150 g/l of hemin from hemin from Sigma (ref: H5533-256). The samples to be checked and the various solutions of the calibration series were injected in a volume of 20 μl (for the hemin solutions and samples) and of 5 μl (for the protoporphyrin IX solutions and samples). The initial mobile phase consisting of a volume for volume mixture of acetonitrile and 10 mM KH2PO4 pH 2.5 is set at a flow rate of 1 ml/min. A discontinuous gradient was then produced from this mobile phase in order to separate the molecules of interest which are detected at a wavelength of 400 nm. […]",
  "data": [
    {"smiles": "C=CC1=C(C)c2cc3[n-]c(cc4nc(cc5[n-]c(cc1n2)c(C)c5CCC(=O)O)C(CCC(=O)O)=C4C)c(C)c3C=C.[Cl-].[Fe+3]", "note": "[Hemin, hemin, reference compound]", "values": [
      {"measurement": "Mean PRP", "setting": "hemin 11.8 μg/l", "value": 4, "unit": "mg/L"},
      {"measurement": "PRP in mg/l Assay 1", "setting": "hemin 11.8 μg/l", "value": 3.82, "unit": "mg/L"},
      {"measurement": "PRP in mg/l Assay 2", "setting": "hemin 11.8 μg/l", "value": 3.79, "unit": "mg/L"},
      {"measurement": "Mean PRP", "setting": "hemin 59 μg/l", "value": 7, "unit": "mg/L"},
      {"measurement": "PRP in mg/l Assay 1", "setting": "hemin 59 μg/l", "value": 7.61, "unit": "mg/L"},
      {"measurement": "PRP in mg/l Assay 2", "setting": "hemin 59 μg/l", "value": 7.13, "unit": "mg/L"},
      {"measurement": "Mean PRP", "setting": "hemin 118 μg/l", "value": 20, "unit": "mg/L"},
      {"measurement": "PRP in mg/l Assay 1", "setting": "hemin 118 μg/l", "value": 23.4, "unit": "mg/L"},
      {"measurement": "PRP in mg/l Assay 2", "setting": "hemin 118 μg/l", "value": 17.5, "unit": "mg/L"},
      {"measurement": "Mean PRP", "setting": "hemin 295 μg/l", "value": 48, "unit": "mg/L"},
      {"measurement": "PRP in mg/l Assay 1", "setting": "hemin 295 μg/l", "value": 51.2, "unit": "mg/L"},
      {"measurement": "PRP in mg/l Assay 2", "setting": "hemin 295 μg/l", "value": 45.4, "unit": "mg/L"},
      {"measurement": "Mean PRP", "setting": "hemin 590 μg/l", "value": 84, "unit": "mg/L"},
      {"measurement": "PRP in mg/l Assay 1", "setting": "hemin 590 μg/l", "value": 95.4, "unit": "mg/L"},
      {"measurement": "PRP in mg/l Assay 2", "setting": "hemin 590 μg/l", "value": 72.9, "unit": "mg/L"},
      {"measurement": "Mean PRP", "setting": "hemin 1180 μg/l", "value": 233, "unit": "mg/L"},
      {"measurement": "PRP in mg/l Assay 1", "setting": "hemin 1180 μg/l", "value": 234, "unit": "mg/L"},
      {"measurement": "PRP in mg/l Assay 2", "setting": "hemin 1180 μg/l", "value": 232, "unit": "mg/L"},
      {"measurement": "Mean PRP", "setting": "hemin 1770 μg/l", "value": 210, "unit": "mg/L"},
      {"measurement": "PRP in mg/l Assay 1", "setting": "hemin 1770 μg/l", "value": 209, "unit": "mg/L"},
      {"measurement": "PRP in mg/l Assay 2", "setting": "hemin 1770 μg/l", "value": 211, "unit": "mg/L"},
      {"measurement": "Mean PRP", "setting": "hemin 2360 μg/l", "value": 494, "unit": "mg/L"},
      {"measurement": "PRP in mg/l Assay 1", "setting": "hemin 2360 μg/l", "value": 505, "unit": "mg/L"},
      {"measurement": "PRP in mg/l Assay 2", "setting": "hemin 2360 μg/l", "value": 482, "unit": "mg/L"},
      {"measurement": "Mean PRP", "setting": "hemin 3540 μg/l", "value": 142, "unit": "mg/L"},
      {"measurement": "PRP in mg/l Assay 1", "setting": "hemin 3540 μg/l", "value": 129, "unit": "mg/L"},
      {"measurement": "PRP in mg/l Assay 2", "setting": "hemin 3540 μg/l", "value": 154, "unit": "mg/L"},
      {"measurement": "heme source concentration required for optimum / maximum PRP production", "setting": "garden pea peptone medium (FIG. 1)", "value": "about 2500 μg/l"},
      {"measurement": "production of PRP (in words)", "setting": "plant peptone medium, heme source at 10 μg/l", "value": "insignificant"},
      {"measurement": "production of PRP", "setting": "plant peptone medium, heme source at 50 μg/l (FIGS. 1 and 2)", "value": "≤ 10", "unit": "µg/L"}
    ]}
  ]
}
